Measurements reported in PMC9779727, “Identification of Novel Artemisinin Hybrids Induce Apoptosis and Ferroptosis in MCF-7 Cells” (International Journal of Molecular Sciences, 2022).

Key:
[1] = tested on: Bcl-2; experiment: Western blotting, Bcl-2 expression; format: cell-based, human; conditions: MCF-7, 0, 2.5, 5 and 10 μM, 48 h, GAPDH internal control
Description: Based on the JC-1 staining results, we further analyzed the expression of proteins related to apoptosis using a Western blotting assay with GAPDH as an internal control. […] Then, an excess of cytochrome C can enhance caspase-3 activation to stimulate apoptosis.
MCF-7 cells were seeded at a density of 4 × 10^5 cells per well and treated with various concentrations of compound A8 (0, 2.5, 5 and 10 μM) for 48 h. After this, cells were collected and washed twice with ice-cold DPBS. The pellets were resuspended in a total protein extraction buffer (20 mM HEPES, 350 mM NaCl, 20% glycerol, 1% NP-40, 1 mM MgCl2, 0.5 mM EDTA, 0.1 mM EGTA, 0.1 mM DTT, 0.1 mM PMSF) containing a protease inhibitor cocktail and incubated on ice for 30 min with intermittent mixing. The protein concentration was measured using the Bradford reagent (Bio-Rad Laboratories Inc., Hercules, CA, USA). An equal amount (20 μg) of protein was loaded on 10% polyacrylamide gels and transferred to a nitrocellulose membrane. After blocking with 5% skimmed milk, the membrane was incubated at 4 °C overnight with specific primary antibodies. The membrane was washed and incubated at room temperature for 1 h with secondary antibodies conjugated with horseradish peroxidase (HRP). Finally, the immunoblot was developed for visualization using a chemiluminescence kit. […]

[2] = biological target: T1, CYP2C9 (Homo sapiens, UniProt P11712); experiment: CYPs inhibition assay, CYP2C9; format: in vitro ADME; conditions: human liver microsomes
T1 construct: from tissue; host or cells: human liver microsomes
T1 sequence (P11712 whole entry): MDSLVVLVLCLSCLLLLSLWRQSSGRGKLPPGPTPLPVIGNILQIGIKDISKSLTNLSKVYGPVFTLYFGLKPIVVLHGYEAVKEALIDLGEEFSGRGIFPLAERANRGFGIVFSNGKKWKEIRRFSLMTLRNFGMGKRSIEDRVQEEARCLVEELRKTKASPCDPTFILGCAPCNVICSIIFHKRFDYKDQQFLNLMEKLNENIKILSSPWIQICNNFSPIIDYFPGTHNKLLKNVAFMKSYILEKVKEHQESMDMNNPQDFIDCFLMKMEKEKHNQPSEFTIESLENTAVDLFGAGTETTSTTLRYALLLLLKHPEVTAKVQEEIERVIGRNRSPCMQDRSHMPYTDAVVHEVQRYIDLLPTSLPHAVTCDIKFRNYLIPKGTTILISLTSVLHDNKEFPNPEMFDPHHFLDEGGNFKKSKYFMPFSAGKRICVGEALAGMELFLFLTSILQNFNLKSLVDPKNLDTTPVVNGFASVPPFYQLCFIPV
Description: (§1) Finally, we evaluated the interaction between the hybrid A8 and five major metabolic enzymes (CYP1A2, CYP2C9, CYP2C19, CYP2D6 and CYP3A4) in the human body. […] It is also one of the directions for our further transformation and optimization.
(§2) Cytochrome P450 inhibition was evaluated in human liver microsomes (0.253 mg/mL) using five […] (CYP1A2, α-Naphthoflavone; CYP2C9, Sulfaphenazole; CYP2C19, Benzylnirvanol; CYP2D6, Quinidine; and CYP3A4, Ketoconazole.) in the presence of compound A8 (10 μM). After preincubation for 10 min at 37 °C, an NADPH-regenerating system was added. After the mixed system was incubated for 15 min at 37 °C, the reaction was stopped by adding 400 μL of cold stop solution (200 ng/mL tolbutamide and 200 ng/mL labetalol in acetonitrile). Then, the mixture was centrifuged, and the supernatant was analyzed by LC-MS/MS.

[3] = tested on: breast cancer MCF-7 cells; experiment: MTT antiproliferation assay, MCF-7; format: cell-based, human; conditions: 48 h, means ± SD, n = 3
Source text: (§3) The target hybrids A1–A15 were screened for their antiproliferation activities against five human cancer cell lines (lung cancer A549 cells, breast cancer MCF-7 and MDA-MB-231 cells, colon cancer HCT116 cells and ovarian cancer SK-OV-3 cells) in vitro by the standard MTT method, and 5-fluorouracil (5-FU) and ART were coassayed as controls. […] Therefore, the most promising hybrid, A8, was chosen for further exploration of the preliminary mechanism of MCF-7 cell antiproliferation.
(§4) Cytotoxicity of test compounds against five different tumor cell lines were evaluated using an MTT assay in vitro. Cells were seeded into 96-well plates at a density of 5 × 10^4 cells per well and stabilized at 37 °C with 5% CO2 for 24 h. Compounds A1–A15, ART and 5-FU were added to each well at various concentrations and then the cells were incubated for 48 h. The MTT solution (100 μL 0.5 mg/mL^−1) was added to each well, and the cells were incubated for another 4 h. Then, 150 μL DMSO was added to each well and the absorbance of samples was measured at 492 nm. The IC50 values were calculated according to Logit method after getting the inhibitory rate.

[4] = tested on: colon cancer HCT116 cells; experiment: MTT antiproliferation assay, HCT116; format: cell-based, human; conditions: 48 h, means ± SD, n = 3
Source text: as §3, §4

[5] = biological target: T2, CYP2D6 (Homo sapiens, UniProt P10635); experiment: CYPs inhibition assay, CYP2D6; format: in vitro ADME; conditions: human liver microsomes
T2 construct: from tissue; host or cells: human liver microsomes
T2 sequence (P10635 whole entry): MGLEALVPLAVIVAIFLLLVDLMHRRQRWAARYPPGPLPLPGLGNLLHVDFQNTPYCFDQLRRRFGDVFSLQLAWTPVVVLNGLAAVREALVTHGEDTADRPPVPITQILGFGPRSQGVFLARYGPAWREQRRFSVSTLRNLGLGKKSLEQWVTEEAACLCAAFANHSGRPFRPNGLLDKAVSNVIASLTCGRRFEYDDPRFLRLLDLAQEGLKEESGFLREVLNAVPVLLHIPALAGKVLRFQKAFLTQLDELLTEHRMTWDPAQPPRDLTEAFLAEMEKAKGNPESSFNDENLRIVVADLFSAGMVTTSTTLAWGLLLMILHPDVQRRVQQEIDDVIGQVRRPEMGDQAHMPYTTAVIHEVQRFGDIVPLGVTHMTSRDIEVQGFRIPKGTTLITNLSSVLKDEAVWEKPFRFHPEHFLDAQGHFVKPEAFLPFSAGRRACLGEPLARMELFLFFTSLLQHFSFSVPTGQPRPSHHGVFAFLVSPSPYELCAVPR
Description: as §1, §2

[6] = biological target: T3, CYP1A2 (Homo sapiens, UniProt P05177); experiment: CYPs inhibition assay, CYP1A2; format: in vitro ADME
T3 construct: from tissue; host or cells: human liver microsomes
T3 sequence (P05177 1-516): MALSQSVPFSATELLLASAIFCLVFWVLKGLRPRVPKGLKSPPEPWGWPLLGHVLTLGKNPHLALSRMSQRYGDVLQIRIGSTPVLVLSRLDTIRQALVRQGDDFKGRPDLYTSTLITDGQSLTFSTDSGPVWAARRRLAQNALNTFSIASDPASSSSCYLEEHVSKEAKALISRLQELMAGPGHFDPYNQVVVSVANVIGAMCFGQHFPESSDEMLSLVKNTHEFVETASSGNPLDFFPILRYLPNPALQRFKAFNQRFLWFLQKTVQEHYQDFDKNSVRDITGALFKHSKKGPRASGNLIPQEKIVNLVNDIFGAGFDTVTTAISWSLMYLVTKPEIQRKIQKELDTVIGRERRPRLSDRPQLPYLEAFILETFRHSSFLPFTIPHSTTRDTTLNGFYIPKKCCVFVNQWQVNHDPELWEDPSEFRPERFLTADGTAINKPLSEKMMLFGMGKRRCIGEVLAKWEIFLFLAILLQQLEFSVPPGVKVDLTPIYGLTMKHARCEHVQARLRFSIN
Description: as §1, §2

[7] = tested on: MCF-7 cells; experiment: Cell colony formation assay; format: cell-based, human; conditions: 12 d
Description: We chose a cell colony formation assay to determine the antiproliferative effect of the compound more intuitively.
MCF-7 cells were seeded into 6-well plates at 37 °C with 5% CO2 for 24 h and then treated with compound A8 at various concentrations (0, 2.5, 5 and 10 μM), ART (10 μM) and 5-FU (10 μM) for 12 d. Then, cells were stained with Giemsa and clones number were counted directly with naked eyes.

[8] = tested on: MCF-7 cells; experiment: Lipid peroxidation (MDA) detection; format: cell-based, human; conditions: MCF-7
Source text: We also determined the effect of A8 on the expression of GSH and MDA (lipid peroxidation).
Lipid peroxidation assay kit (Beyotime, Shanghai, China) was used to detect malonaldehyde (MDA), together with GSH level assay, present in samples, as per the manufacturer’s instruction with slight modifications.

[9] = biological target: T4, CYP2C19 (Homo sapiens, UniProt P33261); experiment: CYPs inhibition assay, CYP2C19; format: in vitro ADME; conditions: human liver microsomes
T4 construct: from tissue; host or cells: human liver microsomes
T4 sequence (P33261 whole entry): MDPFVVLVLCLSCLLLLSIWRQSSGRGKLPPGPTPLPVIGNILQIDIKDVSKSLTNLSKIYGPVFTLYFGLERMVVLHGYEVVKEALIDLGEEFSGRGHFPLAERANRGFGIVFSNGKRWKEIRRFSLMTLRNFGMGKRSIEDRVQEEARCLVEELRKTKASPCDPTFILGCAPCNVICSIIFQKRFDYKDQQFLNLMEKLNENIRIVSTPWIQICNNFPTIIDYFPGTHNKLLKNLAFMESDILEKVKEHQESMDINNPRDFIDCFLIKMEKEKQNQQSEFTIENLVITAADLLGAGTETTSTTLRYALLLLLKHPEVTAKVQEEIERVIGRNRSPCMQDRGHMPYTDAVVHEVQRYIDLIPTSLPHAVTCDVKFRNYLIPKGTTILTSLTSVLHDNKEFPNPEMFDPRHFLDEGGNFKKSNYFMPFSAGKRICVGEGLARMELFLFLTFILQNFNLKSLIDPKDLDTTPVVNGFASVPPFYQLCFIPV
Description: as §1, §2

## CC1CCC2C(C)C(OC(=O)CCC(=O)NCc3nnc(Nc4ccc(F)cc4F)o3)OC3OC4(C)CCC1C32OO4 (centres unmarked) [A8]
[1]
  expression of Bcl-2 (in words): significantly downregulated
[2]
  Inhibition at 10 μM (%) CYP2C9: 6.4%
[3]
  IC50: 4.07 ± 0.05 µM
[4]
  IC50: 9.71 ± 0.37 µM
[5]
  Inhibition at 10 μM (%) CYP2D6: 0.1%
[6]; 10 μM
  inhibitory effect on CYP1A2 (in words): moderate inhibitory effect
[6]; human liver microsomes
  Inhibition at 10 μM (%) CYP1A2: 57.1%
[7]; MCF-7, 0, 2.5, 5 and 10 μM
  cell colony number (in words): decreased in a dose-dependent manner
[7]; MCF-7, same administration concentration (10 μM)
  antiproliferative effect in colony formation compared with controls (in words): better than that of 5-FU and ART
[8]
  MDA level (in words): increased at higher concentrations
[9]
  Inhibition at 10 μM (%) CYP2C19: 12.3%
